Experiments:
MKNK1 [1] = target: T1, MKNK1 (Homo sapiens, UniProt Q9BUB5, T385D); experiment: MKNK1 kinase assay (MKNK1 TR-FRET assay); format: biochemical; conditions: 10 μM ATP, 15 min preincubation
T1 construct: GST (N); purchased Carna Biosciences 02-145; host or cells: insect cells (baculovirus expression system)

MKNK1 [2] = target: T1, MKNK1; experiment: MKNK1 kinase high ATP assay (TR-FRET-based); format: biochemical; conditions: 2 mM ATP, 15 min preincubation
In short: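 TR-FRET read-out (anti-phospho-S6 Ser236 antibody, Eu/XL665) of biotin-peptide phosphorylation (0.06 μM) at high ATP (2 mM final). Enzyme was GST-MKNK1 full length, T344D, pre-bound to compound for 15 min before a 30 min reaction at 22 °C, pH 7.5. Inhibition scaled between no-inhibitor (0%) and no-enzyme (100%) wells.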

T1 sequence (Q9BUB5 1-424 isoform Q9BUB5-2 T344D): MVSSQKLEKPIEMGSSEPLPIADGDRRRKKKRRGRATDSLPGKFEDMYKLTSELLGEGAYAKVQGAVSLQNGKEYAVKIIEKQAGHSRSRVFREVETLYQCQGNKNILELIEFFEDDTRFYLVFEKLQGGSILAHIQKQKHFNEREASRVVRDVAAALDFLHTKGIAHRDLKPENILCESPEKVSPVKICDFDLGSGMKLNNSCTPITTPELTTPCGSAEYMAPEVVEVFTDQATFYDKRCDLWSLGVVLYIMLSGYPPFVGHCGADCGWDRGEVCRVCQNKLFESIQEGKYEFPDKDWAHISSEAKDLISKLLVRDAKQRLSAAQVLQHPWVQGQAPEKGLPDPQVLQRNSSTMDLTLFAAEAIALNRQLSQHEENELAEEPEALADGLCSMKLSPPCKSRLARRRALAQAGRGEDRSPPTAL

| Compound | IC50 (MKNK1 [1]; Table 1b) [nM] | IC50 (MKNK1 [2]; Table 2b) [nM] | IC50 (MKNK1 [1]; Table 1c) [nM] | IC50 (MKNK1 [2]; Table 2c) [nM] |
| --- | --- | --- | --- | --- |
| C[C@@H]1CN(c2cccc3oc(-c4cnc5ccc(O[C@H]6C[C@H](N)C6)nn45)cc23)CCO1 [II-73, trans-3-[(3-{4-[(2R)-2-methylmorpholin-4-yl]-1-benzofuran-2-yl}imidazo[1,2-b]pyridazin-6-yl)oxy]cyclobutanamine] | 42.4 | 47.6 | – | – |
| CC1(C)CN(c2cccc3oc(-c4cnc5ccc(OC[C@H]6CCC(=O)N6)nn45)cc23)CCO1 [II-74, (5R)-5-[({3-[4-(2,2-dimethylmorpholin-4-yl)-1-benzofuran-2-yl]imidazo[1,2-b]pyridazin-6-yl}oxy)methyl]pyrrolidin-2-one] | 4.1 | 11.2 | – | – |
| C[C@@H](N)COc1ccc2ncc(-c3cc4c(N5CCOC[C@@H]5C)cccc4o3)n2n1 [II-75, (2R)-1-[(3-{4-[(3S)-3-methylmorpholin-4-yl]-1-benzofuran-2-yl}imidazo[1,2-b]pyridazin-6-yl)oxy]propan-2-amine] | 23 | 25.7 | – | – |
| C[C@@H](N)COc1ccc2ncc(-c3cc4c(N5CCO[C@@H](C)C5)cccc4o3)n2n1 [II-76, (2R)-1-[(3-{4-[(2S)-2-methylmorpholin-4-yl]-1-benzofuran-2-yl}imidazo[1,2-b]pyridazin-6-yl)oxy]propan-2-amine] | 6.9 | 18.4 | – | – |
| C[C@@H](N)COc1ccc2ncc(-c3cc4c(N5CCOCC5)nccc4o3)n2n1 [III-1, (2R)-1-({3-[4-(Morpholin-4-yl)furo[3,2-c]pyridin-2-yl]imidazo[1,2-b]pyridazin-6-yl}oxy)propan-2-amine] | – | – | 8.4 | 19.5 |
| C[C@@H](N)COc1ccc2ncc(-c3cc4c(N5CCC(CO)CC5)nccc4o3)n2n1 [III-2, {1-[2-(6-{[(2R)-2-Aminopropyl]oxy}imidazo[1,2-b]pyridazin-3-yl)furo[3,2-c]pyridin-4-yl]piperidin-4-yl}methanol] | – | – | 1.8 | 1.8 |
| C[C@@H]1COCCN1c1nccc2oc(-c3cnc4ccc(OC[C@@H](C)N)nn34)cc12 [III-3, (2R)-1-[(3-{4-[(3R)-3-Methylmorpholin-4-yl]furo[3,2-c]pyridin-2-yl}imidazo-[1,2-b]pyridazin-6-yl)oxy]propan-2-amine] | – | – | 6.7 | 11.7 |
| CCN(CCOC)c1nccc2oc(-c3cnc4ccc(OC[C@@H](C)N)nn34)cc12 [III-4, 2-(6-{[(2R)-2-Aminopropyl]oxy}imidazo[1,2-b]pyridazin-3-yl)-N-ethyl-N-(2-methoxyethyl)furo[3,2-c]pyridin-4-amine] | – | – | 0.6 | 0.4 |
| C[C@H](N)COc1ccc2ncc(-c3cc4c(N5CCOCC5)nccc4o3)n2n1 [III-7, (2S)-1-({3-[4-(Morpholin-4-yl)furo[3,2-c]pyridin-2-yl]imidazo[1,2-b]pyridazin-6-yl}oxy)propan-2-amine] | – | – | 11.6 | 21.7 |
| C[C@H](N)COc1ccc2ncc(-c3cc4c(N5CCN(C)CC5)nccc4o3)n2n1 [III-8, (2S)-1-({3-[4-(4-Methylpiperazin-1-yl)furo[3,2-c]pyridin-2-yl]imidazo[1,2-b]pyridazin-6-yl}oxy)propan-2-amine] | – | – | 7.2 | 16.3 |
| C[C@H](N)COc1ccc2ncc(-c3cc4c(N5CCCCC5)nccc4o3)n2n1 [III-9, (2S)-1-({3-[4-(Piperidin-1-yl)furo[3,2-c]pyridin-2-yl]imidazo[1,2-b]pyridazin-6-yl}oxy)propan-2-amine] | – | – | 10.6 | 20.4 |
| C[C@H](N)COc1ccc2ncc(-c3cc4c(N5CCCC5)nccc4o3)n2n1 [III-10, (2S)-1-({3-[4-(Pyrrolidin-1-yl)furo[3,2-c]pyridin-2-yl]imidazo[1,2-b]pyridazin-6-yl}oxy)propan-2-amine] | – | – | 15.4 | 63.5 |
| C[C@H](N)COc1ccc2ncc(-c3cc4c(N5CC[C@@H](N(C)C)C5)nccc4o3)n2n1 [III-11, (3R)-1-[2-(6-{[(2S)-2-Aminopropyl]oxy}imidazo[1,2-b]pyridazin-3-yl)furo[3,2-c]pyridin-4-yl]-N,N-dimethylpyrrolidin-3-amine] | – | – | 2.7 | 12.4 |
| C[C@H](N)COc1ccc2ncc(-c3cc4c(N(C)CCCN5CCCC5)nccc4o3)n2n1 [III-12, 2-(6-{[(2S)-2-Aminopropyl]oxy}imidazo[1,2-b]pyridazin-3-yl)-N-methyl-N-[3-(pyrrolidin-1-yl)propyl]furo[3,2-c]pyridin-4-amine] | – | – | 8.6 | 43.1 |
| C[C@H](N)COc1ccc2ncc(-c3cc4c(N(C)C5CCN(C)CC5)nccc4o3)n2n1 [III-13, 2-(6-{[(2S)-2-Aminopropyl]oxy}imidazo[1,2-b]pyridazin-3-yl)-N-methyl-N-(1-methylpiperidin-4-yl)furo[3,2-c]pyridin-4-amine] | – | – | 13 | 62 |
| C[C@H](N)COc1ccc2ncc(-c3cc4c(N5CCC[C@@H]5CO)nccc4o3)n2n1 [III-14, {(2R)-1-[2-(6-{[(2S)-2-Aminopropyl]oxy}imidazo[1,2-b]pyridazin-3-yl)furo-[3,2-c]pyridin-4-yl]pyrrolidin-2-yl}methanol] | – | – | 6.9 | 17.9 |
| C[C@H](N)COc1ccc2ncc(-c3cc4c(N5CCN(C(=O)OC(C)(C)C)CC5)nccc4o3)n2n1 [III-15, tert-Butyl 4-[2-(6-{[(2S)-2-aminopropyl]oxy}imidazo[1,2-b]pyridazin-3-yl)furo[3,2-c]pyridin-4-yl]piperazine-1-carboxylate] | – | – | 31 | 78.4 |
| COCCN(C)c1nccc2oc(-c3cnc4ccc(OC[C@H](C)N)nn34)cc12 [III-16, 2-(6-{[(2S)-2-Aminopropyl]oxy}imidazo[1,2-b]pyridazin-3-yl)-N-(2-methoxyethyl)-N-methylfuro[3,2-c]pyridin-4-amine] | – | – | 2.1 | 6 |
| CCN(CCOC(C)(C)C)c1nccc2oc(-c3cnc4ccc(OC[C@H](C)N)nn34)cc12 [III-26, 2-(6-{[(2S)-2-Aminopropyl]oxy}imidazo[1,2-b]pyridazin-3-yl)-N-(2-tert-butoxyethyl)-N-ethylfuro[3,2-c]pyridin-4-amine] | – | – | 1.7 | 0.8 |

More lines, now with the values ahead:

| IC50 (MKNK1 [1]; Table 1b) [nM] | IC50 (MKNK1 [2]; Table 2b) [nM] | IC50 (MKNK1 [1]; Table 1c) [nM] | IC50 (MKNK1 [2]; Table 2c) [nM] | Compound |
| --- | --- | --- | --- | --- |
| – | – | 18.3 | 44.2 | C[C@H](N)COc1ccc2ncc(-c3cc4c(N5CCNCC5)nccc4o3)n2n1 [III-17, (2S)-1-({3-[4-(Piperazin-1-yl)furo[3,2-c]pyridin-2-yl]imidazo[1,2-b]pyridazin-6-yl}oxy)propan-2-amine] |
| – | – | 0.7 | 0.9 | CCN(CCOC)c1nccc2oc(-c3cnc4ccc(OC[C@H](C)N)nn34)cc12 [III-18, 2-(6-{[(2S)-2-Aminopropyl]oxy}imidazo[1,2-b]pyridazin-3-yl)-N-ethyl-N-(2-methoxyethyl)furo[3,2-c]pyridin-4-amine] |
| – | – | 12.2 | 42.7 | C[C@H](N)COc1ccc2ncc(-c3cc4c(N5C[C@@H](C)O[C@@H](C)C5)nccc4o3)n2n1 [III-19, (2S)-1-[(3-{4-[(2R,6S)-2,6-Dimethylmorpholin-4-yl]furo[3,2-c]pyridin-2-yl}imidazo[1,2-b]pyridazin-6-yl)oxy]propan-2-amine] |
| – | – | 3.9 | 10.5 | C[C@H](N)COc1ccc2ncc(-c3cc4c(N(C)CCCO)nccc4o3)n2n1 [III-20, 3-{[2-(6-{[(2S)-2-Aminopropyl]oxy}imidazo[1,2-b]pyridazin-3-yl)furo[3,2-c]pyridin-4-yl](methyl)amino}propan-1-ol] |
| – | – | 12 | 33.2 | C[C@H](N)COc1ccc2ncc(-c3cc4c(N5CCC(N(C)C)CC5)nccc4o3)n2n1 [III-21, 1-[2-(6-{[(2S)-2-Aminopropyl]oxy}imidazo[1,2-b]pyridazin-3-yl)furo[3,2-c]pyridin-4-yl]-N,N-dimethylpiperidin-4-amine] |
| – | – | 6.5 | 14.1 | C[C@H](N)COc1ccc2ncc(-c3cc4c(N5CCC(CO)CC5)nccc4o3)n2n1 [III-22, {1-[2-(6-{[(2S)-2-Aminopropyl]oxy}imidazo[1,2-b]pyridazin-3-yl)furo[3,2-c]pyridin-4-yl]piperidin-4-yl}methanol] |
| – | – | 16.6 | 45 | C[C@H](N)COc1ccc2ncc(-c3cc4c(N5CCN(c6ccccc6)CC5)nccc4o3)n2n1 [III-23, (2S)-1-({3-[4-(4-Phenylpiperazin-1-yl)furo[3,2-c]pyridin-2-yl]imidazo[1,2-b]pyridazin-6-yl}oxy)propan-2-amine] |
| – | – | 0.4 | 8.6 | COC[C@H]1CCCN1c1nccc2oc(-c3cnc4ccc(OC[C@H](C)N)nn34)cc12 [III-24, (2S)-1-[(3-{4-[(2R)-2-(Methoxymethyl)pyrrolidin-1-yl]furo[3,2-c]pyridin-2-yl}imidazo[1,2-b]pyridazin-6-yl)oxy]propan-2-amine] |
| – | – | 9.2 | 13.7 | C[C@H](N)COc1ccc2ncc(-c3cc4c(N5CCOC[C@H]5C)nccc4o3)n2n1 [III-25, (2S)-1-[(3-{4-[(3R)-3-Methylmorpholin-4-yl]furo[3,2-c]pyridin-2-yl}imidazo-[1,2-b]pyridazin-6-yl)oxy]propan-2-amine] |
| – | – | 31.1 | 97.5 | COC[C@@H]1CCCN1c1nccc2oc(-c3cnc4ccc(OC[C@H](C)N)nn34)cc12 [III-27, (2S)-1-[(3-{4-[(2S)-2-(Methoxymethyl)pyrrolidin-1-yl]furo[3,2-c]pyridin-2-yl}imidazo[1,2-b]pyridazin-6-yl)oxy]propan-2-amine] |
| – | – | 5 | 10.4 | C[C@H](CN)Oc1ccc2ncc(-c3cc4c(N5CCOCC5)nccc4o3)n2n1 [III-30, (2R)-2-({3-[4-(Morpholin-4-yl)furo[3,2-c]pyridin-2-yl]imidazo[1,2-b]pyridazin-6-yl}oxy)propan-1-amine] |

— patent publication US20160287589A1, “SUBSTITUTED-IMIDAZOPYRIDAZINES” (BAYER PHARMA AKTIENGESELLSCHAFT, priority 2013, published 2016)
